In brackets after ≈: the same amount, converted by molar mass.
Columns and labels:
Type in all cases: functional
Staphylococcus aureus [1] = assay: Antibacterial activity against Staphylococcus aureus ATCC 29213 after 18 hrs by broth dilution method; conditions: ATCC 29213, 18 h
Staphylococcus aureus [2] = assay: Antibacterial activity against methicillin-resistant Staphylococcus aureus CCARM 3167 after 18 hrs by broth dilution method; conditions: CCARM 3167, 18 h
Staphylococcus aureus [3] = assay: Antibacterial activity against multidrug-resistant Staphylococcus aureus CCARM 3089 after 18 hrs by broth dilution method; conditions: CCARM 3089, 18 h

Row | Structure (SMILES) | MIC (Staphylococcus aureus [1]) [µg/mL] | MIC (Staphylococcus aureus [2]) [µg/mL] | MIC (Staphylococcus aureus [3]) [µg/mL]
1 | COc1cc(=O)oc2c1COC(C)(O)[C@H]2C (mixture of isomers) [CHLAMYDOSPOROL] | 31.5 | 31.5 | 62.5
2 | COc1cc(=O)oc2c1CO[C@@](C)(OC)[C@@]2(C)Br [BROMOMETHYLCHLAMYDOSPOROL A] | 15.6 (≈ 48.9 µM) | 15.6 (≈ 48.9 µM) | 15.6 (≈ 48.9 µM)
3 | COc1c2c(oc(=O)c1Br)C(C)(Br)[C@](C)(OC)OC2 (some centres not stated) [BROMOMETHYLCHLAMYDOSPOROL B] | 15.6 (≈ 39.2 µM) | 15.6 (≈ 39.2 µM) | 15.6 (≈ 39.2 µM)
4 | C/C=C(\C)[C@H]1[C@@H](/C=C/C=C(\C)[C@@H](O)[C@@H](C)CO)[C@@H]2C[C@@H]3O[C@]3(C)C[C@H]2[C@@H]2O[C@@]21C [FUSARIELIN A] | 31.5 (≈ 78.2 µM) | 31.5 (≈ 78.2 µM) | 62.5 (≈ 155 µM)

Source: ChEMBL document CHEMBL1649358, “Induced production of bromomethylchlamydosporols A and B from the marine-derived fungus Fusarium tricinctum” (2010)
